Like-named read-outs stand apart in the source and are kept apart here.
Molecular target: T1, PKD2 (Homo sapiens, UniProt Q9BZL6)
T1 construct: made in house; host or cells: HEK293T cells, transient transfection with pDEST27-PRKD2, stimulated with 500 nM PDB before lysis
T1 sequence (Q9BZL6 1-878): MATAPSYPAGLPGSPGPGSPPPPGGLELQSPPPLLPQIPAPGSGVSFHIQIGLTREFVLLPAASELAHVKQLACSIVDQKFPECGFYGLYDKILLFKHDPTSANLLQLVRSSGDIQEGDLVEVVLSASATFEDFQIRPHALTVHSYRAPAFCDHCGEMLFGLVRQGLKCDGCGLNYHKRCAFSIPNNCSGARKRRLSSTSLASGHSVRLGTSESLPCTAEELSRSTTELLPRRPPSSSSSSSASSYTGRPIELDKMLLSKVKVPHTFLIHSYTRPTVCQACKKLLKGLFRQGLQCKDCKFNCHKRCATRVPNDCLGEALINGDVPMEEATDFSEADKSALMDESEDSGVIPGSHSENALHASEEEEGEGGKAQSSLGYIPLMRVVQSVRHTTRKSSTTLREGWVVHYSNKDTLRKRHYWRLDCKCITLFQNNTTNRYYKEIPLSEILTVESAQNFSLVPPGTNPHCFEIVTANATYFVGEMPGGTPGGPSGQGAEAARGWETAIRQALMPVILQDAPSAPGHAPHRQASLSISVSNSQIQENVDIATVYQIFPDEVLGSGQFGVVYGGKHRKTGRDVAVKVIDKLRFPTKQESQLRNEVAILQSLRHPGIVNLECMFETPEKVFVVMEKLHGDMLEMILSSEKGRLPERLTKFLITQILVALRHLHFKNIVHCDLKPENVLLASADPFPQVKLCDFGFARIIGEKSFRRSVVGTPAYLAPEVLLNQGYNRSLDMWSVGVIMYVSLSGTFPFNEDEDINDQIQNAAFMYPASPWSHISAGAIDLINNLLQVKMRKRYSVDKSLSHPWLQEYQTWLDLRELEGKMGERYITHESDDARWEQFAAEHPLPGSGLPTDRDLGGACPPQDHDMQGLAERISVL
Assay: PKD2 screening assay (in vitro radiometric kinase assay)
Assay type: biochemical
Settings: for remaining activity at 1 µM: 10 min; for IC50: radiometric
Description: All 35 described analogues were characterized in vitro via an initial screening at 1 μM against PKD2. […]
scanning of a coomassie stained SDS-polyacrylamide gel.
An in vitro radiometric assay was used to determine the inhibition of PKD in presence of various compounds at a […]
determinations. Reactions were carried out in 40µl of a mixture containing 50mM Tris-HCl pH 7.4, 10mM MgCl2, 50ng of PDB stimulated GST-PKD2, 4µg/ml Syntide-2 (Sigma Aldrich, St. Louis, USA), 25µM ATP and 2µCi [γ-32P]ATP (Perkin-Elmer, Massachusetts, USA). After 10’ the reaction was stopped by spotting 30µl of the reaction on whatmann P81 filter paper. The filter papers were washed 3 times in 0.5% phosphoric acid, followed by one wash in 100% acetone. Subsequently the papers were air-dried and counted using the Tri-Carb 2810 TR scintillation counter (Perkin-Elmer). Percentage of PKD2 inhibition was determined relative to a condition where no inhibitor was added (0,1% dimethylsulfoxide (DMSO)). Graphs were plotted and IC50 values were determined using the GraphPad software package (Prism). […]

[1] = ESI table, initial screening of all analogues at 1µM, read-out: % PKD2 activity remaining (1µM) (average ±SD)
[2] = compound at 1 μM, PDB stimulated GST-PKD2, Syntide-2, 25µM ATP, relative to no inhibitor (DMSO), read-out: % PKD 2 activity remaining (1 μM) (Average ± SD)
[3] = PDB stimulated GST-PKD2, Syntide-2, 25µM ATP

Row | Compound | % PKD2 activity remaining (1µM) (average ±SD) (ESI table, initial screening of all analogues at 1µM) | remaining activity at 1 µM [1] | remaining activity at 1 µM [2] | IC50 [3]
1 | 2-acetyl-5-(4-amino-1-(tert-butyl)-1H-pyrazolo[3,4-d]pyrimidin-3-yl)benzaldehyde [Compound 6f] | 81 ±4.5% |  |  | 
2 | CC(C)(C)n1nc(-c2ccccc2)c2c(N)ncnc21 [Compound 6a, 1-tert-butyl-3-phenyl-1H-pyrazolo[3,4-d]pyrimidin-4-amine] |  | 77 ± 2.9% | 76 ± 2.9% | 9.49 µM
3 | CC(C)(C)n1nc(-c2ccc(F)cc2)c2c(N)ncnc21 [Compound 6b, 1-tert-butyl-3-(4-fluorophenyl)-1H-pyrazolo[3,4-d]pyrimidin-4-amine] |  | 81 ± 4% |  | 
4 | CC(C)(C)n1nc(-c2ccccc2Cl)c2c(N)ncnc21 [Compound 6c, 1-tert-butyl-3-(2-chlorophenyl)-1H-pyrazolo[3,4-d]pyrimidin-4-amine] |  | 73 ± 2.4% |  | 
5 | CC(C)(C)n1nc(-c2ccccc2F)c2c(N)ncnc21 [Compound 6d, 1-tert-butyl-3-(2-fluorophenyl)-1H-pyrazolo[3,4-d]pyrimidin-4-amine] |  | 83 ± 9.4% |  | 
6 | COc1ccc(-c2nn(C(C)(C)C)c3ncnc(N)c23)cc1 [Compound 6e, 1-tert-butyl-3-(4-methoxyphenyl)-1H-pyrazolo[3,4-d]pyrimidin-4-amine] |  | 80 ± 7% |  | 
7 | C=Cc1ccc(-c2nn(C(C)(C)C)c3ncnc(N)c23)cc1 [Compound 6g, 1-(tert-butyl)-3-(4-vinylphenyl)-1H-pyrazolo[3,4-d]pyrimidin-4-amine] |  | 84 ± 9.4% |  | 
8 | CC(C)(C)n1nc(-c2ccc3ccccc3c2)c2c(N)ncnc21 [Compound 6h, 1-tert-butyl-3-(2-naphthyl)-1H-pyrazolo[3,4-d]pyrimidin-4-amine] |  | 59 ± 5% |  | 
9 | CC(C)(C)n1nc(-c2cccc3ccccc23)c2c(N)ncnc21 [Compound 6i, 1-tert-butyl-3-(1-naphthyl)-1H-pyrazolo[3,4-d]pyrimidin-4-amine] |  | 34 ± 0.4% | 34 ± 0.4% | 0.403 µM
10 | CC(C)(C)n1nc(-c2ccc(C#N)cc2)c2c(N)ncnc21 [Compound 6j, 4-(4-amino-1-(tert-butyl)-1H-pyrazolo[3,4-d]pyrimidin-3-yl)benzonitrile] |  | 97 ± 0.8% |  | 
11 | CC(C)(C)c1ccc(-c2nn(C(C)(C)C)c3ncnc(N)c23)cc1 [Compound 6k, 1-(tert-butyl)-3-(4-(tert-butyl)phenyl)-1H-pyrazolo[3,4-d]pyrimidin-4-amine] |  | 93 ± 1.5% |  | 
12 | CC(C)(C)n1nc(Cc2ccccc2)c2c(N)ncnc21 [Compound 7a, 3-benzyl-1-tert-butyl-1H-pyrazolo[3,4-d]pyrimidin-4-amine] |  | 35 ± 1.3% | 35 ± 1.3% | 0.449 µM
13 | CC(C)(C)n1nc(Cc2ccccc2Cl)c2c(N)ncnc21 [Compound 7b, 1-tert-butyl-3-(2-chlorobenzyl)-1H-pyrazolo[3,4-d]pyrimidin-4-amine] |  | 41 ± 2.6% | 41 ± 2.6% | 0.451 µM
14 | CC(C)(C)n1nc(Cc2cccc(Cl)c2)c2c(N)ncnc21 [Compound 7c, 1-tert-butyl-3-(3-chlorobenzyl)-1H-pyrazolo[3,4-d]pyrimidin-4-amine] |  | 56 ± 2.4% | 55 ± 2.4% | 
15 | Cn1nc(Cc2cccc(Cl)c2)c2c(N)ncnc21 [Compound 7d, 3-(3-chlorobenzyl)-1-methyl-1H-pyrazolo[3,4-d]pyrimidin-4-amine] |  | 83 ± 6.4% | 83 ± 6.4% | 4.84 µM
16 | CC(C)(C)n1nc(Cc2ccccc2Br)c2c(N)ncnc21 [Compound 7e, 3-(2-bromobenzyl)-1-tert-butyl-1H-pyrazolo[3,4-d]pyrimidin-4-amine] |  | 43 ± 6.6% | 43 ± 6.6% | 0.535 µM

Row | Compound | % PKD2 activity remaining (1µM) (average ±SD) (ESI table, initial screening of all analogues at 1µM) | remaining activity at 1 µM [1] | remaining activity at 1 µM [2] | IC50 [3]
17 | CC(C)(C)n1nc(Cc2cccc(Br)c2)c2c(N)ncnc21 [Compound 7f, 3-(3-bromobenzyl)-1-tert-butyl-1H-pyrazolo[3,4-d]pyrimidin-4-amine] |  | 59 ± 3.3% |  | 
18 | CC(C)(C)n1nc(Cc2cccc(Cl)c2Cl)c2c(N)ncnc21 [Compound 7g, 1-tert-butyl-3-(2,3-dichlorobenzyl)-1H-pyrazolo[3,4-d]pyrimidin-4-amine] |  | 90 ± 5.1% |  | 
19 | CC(C)(C)n1nc(Cc2ccc(Cl)c(Cl)c2)c2c(N)ncnc21 [Compound 7h, 1-tert-butyl-3-(3,4-dichlorobenzyl)-1H-pyrazolo[3,4-d]pyrimidin-4-amine] |  | 78 ± 3.3% |  | 
20 | CC(C)(C)n1nc(CCCc2ccccc2)c2c(N)ncnc21 [Compound 7i, 1-tert-butyl-3-(3-phenylpropyl)-1H-pyrazolo[3,4-d]pyrimidin-4-amine] |  | 101 ± 8.3% | 101 ± 8.3% | > 50 µM
21 | Cn1nc(CCCc2ccccc2)c2c(N)ncnc21 [Compound 7j, 1-methyl-3-(3-phenylpropyl)-1H-pyrazolo[3,4-d]pyrimidin-4-amine] |  | 101 ± 3.3% |  | 
22 | CC(C)(C)n1nc(CCCCc2ccccc2)c2c(N)ncnc21 [Compound 7k, 1-tert-butyl-3-(4-phenylbutyl)-1H-pyrazolo[3,4-d]pyrimidin-4-amine] |  | 92.8 ± 5.8% | 93 ± 5.8% | > 50 µM
23 | Cn1nc(CCCCc2ccccc2)c2c(N)ncnc21 [Compound 7l, 1-methyl-3-(4-phenylbutyl)-1H-pyrazolo[3,4-d]pyrimidin-4-amine] |  | 98 ± 6.4% |  | 
24 | Cn1nc(Cc2cccc3ccccc23)c2c(N)ncnc21 [Compound 7m, 1-methyl-3-(1-naphthylmethyl)-1H-pyrazolo[3,4-d]pyrimidin-4-amine] |  | 64 ± 3.9% | 64 ± 3.9% | 4.66 µM
25 | CCCCNc1nc(N)c2c(-c3ccccc3)nn(C(C)(C)C)c2n1 [Compound 13a, N6-butyl-1-tert-butyl-3-phenyl-1H-pyrazolo[3,4-d]pyrimidine-4,6-diamine] |  | 77 ± 5.1% |  | 
26 | CCCCNc1nc(N)c2c(-c3cccc(Cl)c3)nn(C(C)(C)C)c2n1 [Compound 13b, N6-butyl-1-tert-butyl-3-(3-chlorophenyl)-1H-pyrazolo[3,4-d]pyrimidine-4,6-diamine] |  | 81 ± 6.6% |  | 
27 | CCCCNc1nc(N)c2c(-c3ccc(F)cc3)nn(C(C)(C)C)c2n1 [Compound 13c, N6-butyl-1-tert-butyl-3-(4-fluorophenyl)-1H-pyrazolo[3,4-d]pyrimidine-4,6-diamine] |  | 69 ± 8.3% |  | 
28 | CCCCNc1nc(N)c2c(-c3ccc(OC)cc3)nn(C(C)(C)C)c2n1 [Compound 13d, N6-butyl-1-tert-butyl-3-(4-methoxyphenyl)-1H-pyrazolo[3,4-d]pyrimidine-4,6-diamine] |  | 80 ± 2.5% |  | 
29 | CCCCNc1nc(N)c2c(-c3ccsc3)nn(C(C)(C)C)c2n1 [Compound 13e, N6-butyl-1-tert-butyl-3-(3-thienyl)-1H-pyrazolo[3,4-d]pyrimidine-4,6-diamine] |  | 82 ± 7.2% |  | 
30 | CCCCNc1nc(N)c2c(-c3cccc(C(F)(F)F)c3)nn(C(C)(C)C)c2n1 [Compound 13f, N6-butyl-1-tert-butyl-3-[3-(trifluoromethyl)phenyl]-1H-pyrazolo[3,4-d]pyrimidine-4,6-diamine] |  | 91 ± 8.5% |  | 
31 | CCCCNc1nc(N)c2c(-c3ccc4ccccc4c3)nn(C(C)(C)C)c2n1 [Compound 13g, N6-butyl-1-tert-butyl-3-(2-naphthyl)-1H-pyrazolo[3,4-d]pyrimidine-4,6-diamine] |  | 76 ± 2.7% |  | 
